Data as given in US20220227789A1, “NOVEL INDOLIZINE-2-CARBOXAMIDES ACTIVE AGAINST THE HEPATITIS B VIRUS (HBV)” (AiCuris GmbH & Co. KG, priority 2019, published 2022).

Legend:
[1] = target: T1, HBV core protein (C-terminal truncated, 149 aa assembly domain) (Hepatitis B virus genotype D subtype adw, UniProt P03147, C107A/C48A/C61A); assay: Biochemical capsid assembly assay (fluorescence quenching); conditions: BODIPY-FL labelled core protein, assembly started with NaCl, read after 6 min; read-out: Assembly Activity
T1 construct: The C-terminal truncated core protein containing 149 amino acids of the N-terminal assembly domain; made in house; host or cells: E. coli BL21 (DE3) Rosetta2, plasmid pET21b
Description: Biochemical Capsid Assembly Assay
The screening for assembly effector activity was done based on a fluorescence quenching assay published by Zlotnick et al. (2007). The C-terminal truncated core protein containing 149 amino acids of the N-terminal assembly domain fused to a unique cysteine residue at position 150 and was expressed in E. coli using the pET expression system (Merck Chemicals, Darmstadt). Purification of core dimer protein was performed using a sequence of size exclusion chromatography steps. In brief, the cell pellet from 1 L BL21 (DE3) Rosetta2 culture expressing the coding sequence of core protein cloned NdeI/XhoI into expression plasmid pET21b was treated for 1 h on ice with a native lysis buffer (Qproteome Bacterial Protein Prep Kit; Qiagen, Hilden). After a centrifugation step the supernatant was precipitated during 2 h stirring on ice with 0.23 g/ml of solid ammonium sulfate. Following further centrifugation the resulting pellet was resolved in buffer A (100 mM Tris, pH 7.5; 100 mM NaCl; 2 mM DTT) and was subsequently loaded onto a buffer A equilibrated CaptoCore 700 column (GE HealthCare, Frankfurt). The column flow through containing the assembled HBV capsid was dialyzed against buffer N (50 mM NaHCO3 pH 9.6; 5 mM DTT) before urea was added to a final concentration of 3M to dissociate the capsid into core dimers for 1.5 h on ice. The protein solution was then loaded onto a 1 L Sephacryl 5300 column. After elution with buffer N core dimer containing fractions were identified by SDS-PAGE and subsequently pooled and dialyzed against 50 mM HEPES pH 7.5; 5 mM DTT. To improve the assembly capacity of the purified core dimers a second round of assembly and disassembly starting with the addition of 5 M NaCl and including the size exclusion chromatography steps described above was performed. From the last chromatography step core dimer containing fractions were pooled and stored in aliquots at concentrations between 1.5 to 2.0 mg/ml at −80° C.
Immediately before labelling the core protein was reduced by adding freshly prepared DTT in a final concentration of 20 mM. After […] on ice storage buffer and DTT was removed using a Sephadex G-25 column (GE HealthCare, Frankfurt) and 50 mM HEPES, pH 7.5. For labelling 1.6 mg/ml core protein was incubated at 4° C. and darkness overnight with BODIPY-FL maleimide (Invitrogen, Karlsruhe) in a final concentration of 1 mM. After labelling the free dye was removed by an additional desalting step using a Sephadex G-25 column. Labelled core dimers were stored in aliquots at 4° C. In the dimeric state the fluorescence signal of the labelled core protein is high and is quenched during the assembly of the core dimers to high molecular capsid structures. The screening assay was performed in black 384 well microtiter plates in a total assay volume of 10 μl using 50 mM HEPES pH 7.5 and 1.0 to 2.0 μM labelled core protein. Each screening compound was added in 8 different concentrations using a 0.5 log-unit serial dilution starting at a final concentration of 100 μM, 31.6 μM or 10 μM, In any case the DMSO concentration over the entire microtiter plate was 0.5%. The assembly reaction was started by the injection of NaCl to a final concentration of […] which induces the assembly process to approximately 25% of the maximal quenched signal. 6 min after starting the reaction the fluorescence signal was measured using a Clariostar plate reader (BMG Labtech, Ortenberg) with an excitation of 477 nm and an emission of 525 nm. As 100% and 0% assembly control HEPES buffer containing 2.5 M and 0 M NaCl was used. Experiments were performed thrice in triplicates. EC50 values were calculated by non-linear regression analysis using the Graph Pad Prism 6 software (GraphPad Software, La Jolla, USA).

[2] = system: HBV; assay: HBV replication assay: HBV DNA from the supernatants of HepAD38 cells; assay type: cell-based; conditions: Hepatitis B virus, 144 h, HBV DNA in supernatant by qPCR at day 6, read-out: Cell Activity
Description: Determination of HBV DNA from the Supernatants of HepAD38 Cells
The anti-HBV activity was analysed in the stable transfected cell line HepAD38, which has been described to secrete high levels of HBV virion particles (Ladner et al., 1997). In brief, HepAD38 cells were cultured at 37° C. at 5% CO2 and 95% humidity in 200 μl maintenance medium, which was Dulbecco's modified Eagle's medium/Nutrient Mixture F-12 (Gibco, Karlsruhe), 10% fetal bovine serum (PAN Biotech Aidenbach) supplemented with 50 μg/ml penicillin/streptomycin (Gibco, Karlsruhe), 2 mM L-glutamine (PAN Biotech, Aidenbach), 400 μg/ml G418 (AppliChem, Darmstadt) and 0.3 μg/ml tetracycline. Cells were subcultured once a week in a 1:5 ratio, but were usually not passaged more than ten times. For the assay 60,000 cells were seeded in maintenance medium without any tetracycline into each well of a 96-well plate and treated with serial half-log dilutions of test compound. To minimize edge effects the outer 36 wells of the plate were not used but were filled with assay medium. On each assay plate six wells for the virus control (untreated HepAD38 cells) and six wells for the cell control (HepAD38 cells treated with 0.3 μg/ml tetracycline) were allocated, respectively. In addition, one plate set with reference inhibitors like BAY 41-4109, entecavir, and lamivudine instead of screening compounds were prepared in each experiment. In general, experiments were performed thrice in triplicates. At day 6 HBV DNA from 100 μl filtrated cell culture supernatant (AcroPrep Advance 96 Filter Plate, […] Supor membran, PALL GmbH, Dreieich) was automatically purified on the MagNa Pure LC instrument using the MagNA Pure 96 DNA and Viral NA Small Volume Kit (Roche Diagnostics, Mannheim) according to the instructions of the manufacturer. EC50 values were calculated from relative copy numbers of HBV DNA In brief, 5 μl of the 100 μl eluate containing HBV DNA were subjected to PCR LC480 Probes Master Kit (Roche) together with 1 μM antisense primer […], 0.5 μM sense primer […], 0.3 μM hybprobes […]-FL and LC640-[…]-PH (TIBMolBiol, Berlin) to a final volume of […]. The PCR was performed on the Light Cycler 480 real time system (Roche Diagnostics, Mannheim) using the following protocol: Pre-incubation for 1 min at 95° C., amplification: 40 cycles×(10 sec at 95° C., 50 sec at 60° C., 1 sec at 70° C.), cooling for 10 sec at 40° C. Viral load was quantitated against known standards using HBV plasmid DNA of pCH-9/3091 (Nassal et al., 1990, Cell 63: 1357-1363) and the LightCycler 480 SW 1.5 software (Roche Diagnostics, Mannheim) and EC50 values were calculated using non-linear regression with GraphPad Prism 6 (GraphPad Software Inc., La Jolla, USA).

T1 sequence (P03147 1-150, looked up, stated change not applied): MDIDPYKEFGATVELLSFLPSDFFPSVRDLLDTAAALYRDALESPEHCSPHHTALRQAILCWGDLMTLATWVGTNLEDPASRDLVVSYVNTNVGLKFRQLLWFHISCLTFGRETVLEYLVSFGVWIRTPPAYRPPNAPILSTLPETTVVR

Compound | IC50 [1] [µM] | EC50 [2] [µM]
COCC1(N(C)C(=O)c2[nH]nc3c2CN(C(=O)c2cc4c(Cl)cccn4c2)CC3)CC1 [Example 3, 5-(8-chloroindolizine-2-carbonyl)-N-[1-(methoxymethyl)cyclopropyl]-N-methyl-2H,4H,5H,6H,7H-pyrazolo[4,3-c]pyridine-3-carboxamide] | < 5 | < 1
COCC1(N(C)C(=O)c2[nH]nc3c2CN(C(=O)c2cc4cccc(Cl)n4c2)CC3)CC1 [Example 4, 5-(5-chloroindolizine-2-carbonyl)-N-[1-(methoxymethyl)cyclopropyl]-N-methyl-2H,4H,5H,6H,7H-pyrazolo[4,3-c]pyridine-3-carboxamide] | 5 to 10 | < 1
COCC1(N(C)C(=O)c2[nH]nc3c2CN(C(=O)c2cc4c(F)cc(F)cn4c2)CC3)CC1 [Example 5, 5-(6,8-difluoroindolizine-2-carbonyl)-N-[1-(methoxymethyl)cyclopropyl]-N-methyl-2H,4H,5H,6H,7H-pyrazolo[4,3-c]pyridine-3-carboxamide] | < 5 | < 1
CN(C(=O)c1cnn2c1CN(C(=O)c1cc3c(Cl)cccn3c1)CC2)C1(COC(F)F)CC1 [Example 6, 5-(8-chloroindolizine-2-carbonyl)-N-{1-[(difluoromethoxy)methyl]cyclopropyl}-N-methyl-4H,5H,6H,7H-pyrazolo[1,5-a]pyrazine-3-carboxamide] | < 5 | < 1
CN(C(=O)c1cnn2c1CN(C(=O)c1cc3c(F)cc(F)cn3c1)CC2)C1(COC(F)F)CC1 [Example 7, 5-(6,8-difluoroindolizine-2-carbonyl)-N-{1-[(difluoromethoxy)methyl]cyclopropyl}-N-methyl-4H,5H,6H,7H-pyrazolo[1,5-a]pyrazine-3-carboxamide] | < 5 | < 1
CN(C(=O)c1cnn2c1CN(C(=O)c1cc3cccc(Cl)n3c1)CC2)C1(COC(F)F)CC1 [Example 8, 5-(5-chloroindolizine-2-carbonyl)-N-{1-[(difluoromethoxy)methyl]cyclopropyl}-N-methyl-4H,5H,6H,7H-pyrazolo[1,5-a]pyrazine-3-carboxamide] | < 5 | 1 to 10
CC1Cn2ncc(C(=O)N(C)C3(COC(F)F)CC3)c2CN1C(=O)c1cc2c(Cl)cccn2c1 (stereo not shown) [Example 9, 5-(8-chloroindolizine-2-carbonyl)-N-{1-[(difluoromethoxy)methyl]cyclopropyl}-N,6-dimethyl-4H,5H,6H,7H-pyrazolo[1,5-a]pyrazine-3-carboxamide] | < 5 | < 1
CC1Cc2[nH]nc(-c3cscn3)c2CN1C(=O)c1cc2c(Cl)cccn2c1 (stereo not shown) [Example 10, 8-chloro-2-[6-methyl-3-(1,3-thiazol-4-yl)-1H,4H,5H,6H,7H-pyrazolo[4,3-c]pyridine-5-carbonyl]indolizine] | < 5 | < 1
CC1Cc2[nH]nc(-c3cscn3)c2CN1C(=O)c1cc2cccc(C(F)(F)F)n2c1 (stereo not shown) [Example 12, 2-[6-methyl-3-(1,3-thiazol-4-yl)-1H,4H,5H,6H,7H-pyrazolo[4,3-c]pyridine-5-carbonyl]-5-(trifluoromethyl)indolizine] | < 100 | 1 to 10
Cc1cccc2cc(C(=O)N3Cc4c(-c5cscn5)n[nH]c4CC3C)cn12 (stereo not shown) [Example 16, 5-methyl-2-[6-methyl-3-(1,3-thiazol-4-yl)-1H,4H,5H,6H,7H-pyrazolo[4,3-c]pyridine-5-carbonyl]indolizine] | 5 to 10 | 1 to 10
Cc1cccn2cc(C(=O)N3Cc4c(-c5cscn5)n[nH]c4CC3C)cc12 (stereo not shown) [Example 17, 8-methyl-2-[6-methyl-3-(1,3-thiazol-4-yl)-1H,4H,5H,6H,7H-pyrazolo[4,3-c]pyridine-5-carbonyl]indolizine] | < 5 | < 1
CC1Cc2[nH]nc(-c3cscn3)c2CN1C(=O)c1cc2c(Cl)cc(Cl)cn2c1 (stereo not shown) [Example 18, 6,8-dichloro-2-[6-methyl-3-(1,3-thiazol-4-yl)-1H,4H,5H,6H,7H-pyrazolo[4,3-c]pyridine-5-carbonyl]indolizine] | 5 to 10 | < 1
CC1Cc2[nH]nc(-c3cscn3)c2CN1C(=O)c1cc2cc(Cl)ccn2c1 (stereo not shown) [Example 19, 7-chloro-2-[6-methyl-3-(1,3-thiazol-4-yl)-1H,4H,5H,6H,7H-pyrazolo[4,3-c]pyridine-5-carbonyl]indolizine] | 5 to 10 | < 1
CC1Cc2[nH]nc(-c3cscn3)c2CN1C(=O)c1cc2cccc(Cl)n2c1 (stereo not shown) [Example 20, 5-chloro-2-[6-methyl-3-(1,3-thiazol-4-yl)-1H,4H,5H,6H,7H-pyrazolo[4,3-c]pyridine-5-carbonyl]indolizine] | 5 to 10 | < 1
CC(NC(=O)c1[nH]nc2c1CN(C(=O)c1cc3c(Cl)cccn3c1)CC2)C(F)(F)F (stereo not shown) [Example 49, 5-(8-chloroindolizine-2-carbonyl)-N-(1,1,1-trifluoropropan-2-yl)-2H,4H,5H,6H,7H-pyrazolo[4,3-c]pyridine-3-carboxamide] | – | 1 to 10
CC(NC(=O)c1cnn2c1CN(C(=O)c1cc3ccccn3c1)CC2)C(F)(F)F (stereo not shown) [Example 50, 5-(indolizine-2-carbonyl)-N-(1,1,1-trifluoropropan-2-yl)-4H,5H,6H,7H-pyrazolo[1,5-a]pyrazine-3-carboxamide] | – | < 1
CC(NC(=O)c1[nH]nc2c1CN(C(=O)c1cc3ccccn3c1)CC2)C(F)(F)F (stereo not shown) [Example 52, 5-(indolizine-2-carbonyl)-N-[1,1,1-trifluoropropan-2-yl]-2H,4H,5H,6H,7H-pyrazolo[4,3-c]pyridine-3-carboxamide] | – | < 100
